Source: EP3508492A1, “TIACUMICIN DERIVATIVES AND THEIR USE AS ANTIBIOTICS” (priority 2018, dated 2019)
Converted amounts (≈) assume the structure as drawn. “And” between values parts separate entries of the source, which are not always exact repeats. Equal entries are not always repeated. Where two headings read alike, the source gives them in different places.

Key:
[1] = test system: Mycobacterium tuberculosis H37Ra; experiment: MIC determination from adjusted liquid culture, serial dilution; assay type: cell-based; conditions: ATCC 25177 / H37Ra, strain ATCC25177, Middlebrook 7H9 + 10 % ADC, read after 3-14 days
Protocol: An M. tuberculosis H37Ra (ATCC25177) liquid culture (5 mL, Middlebrook 7H9 broth base + 10 % ADC supplement) was inoculated from original stock (-80°C). After two to five days of shaking at 37°C, an OD600 (optical density at λ = 600 nm) of approximately 1 was observed. […] Plates were covered with plastic foil and a lid. MIC values were determined by visual inspection or by plate reader at 600 nm after 3-14 days (pre-tempered at 37°C with plastic foil, lid removed). Table 1: The MIC values in Table 1 are given in µg/mL and in nmol/mL.

[2] = test system: Bacillus subtilis; experiment: MIC determination by broth dilution (CLSI); conditions: DSM3256
Protocol: (§1) The strains of Bacillus subtilis and Staphylococcus aureus were grown overnight at 37 °C on MH II agar plates. (BD™ BBL™ Mueller Hinton II Agar, BD Diagnostics). MIC values were determined by broth dilution method according to the recommendations of the Clinical and Laboratory Standards Institute (CLSI; U.S.A.). The inoculum size was about 7.5 x 10^5 colony forming units/well. The compounds were diluted in H2O from 1.0 mg/mL stock solutions in methanol/H2O 1/1 in a 2-fold dilution series. The microtiter plates were incubated at 37 °C overnight.

[3] = test system: Staphylococcus aureus; experiment: MIC determination by broth dilution (CLSI); conditions: ATCC29213
Protocol: as §1

[4] = Determination of aqueous solubility (UHPLC, caffeine internal standard); assay type: physicochemical; conditions: for weight-% of isomer (transacylated regioisomer): five hours at room temperature, equal absorption of both regioisomers assumed; for solubility at 5 h: thermodynamic from solid
Protocol: A standard stock solution of each analyte in MeOH at a concentration of 1.0 mg/mL was prepared. All analytes were completely soluble in MeOH. A standard stock solution of caffeine for use as internal standard (IS) in MeOH was prepared at a concentration of 1 mg/mL. These stock solutions were further diluted with MeOH to calibration standard samples at concentrations of 50, 100, 200, 300, 400, 500 µg/mL of analyte with each sample containing 50 µg/mL of caffeine as IS. These samples were analyzed by UHPLC [Kinetex® EVO C18; 1.7 µm; 100 Å, 50 mm x 2.1 mm; Phenomenex; solvent A: H2O + 0.1 % HCOOH, solvent B: MeCN + 0.1 % HCOOH; 0.4 mL/min; 1.0 µL injection volume, LC time program (min - % B): 0.50 min - 5 %, 3.50 min - 95 %, 3.55 min - 100 %; UV detection at λ = 270 nm]. The peak area of the analyte signal was divided by the peak area of the IS. This peak ratio was plotted against the analyte's concentration to obtain a linear equation.
For reproducibility reasons, water solubility of the fidaxomicin derivatives was quantified in a pH = 7 phosphate buffered aqueous solution (Acros, CAS 7558-79-4). A stock solution of caffeine in phosphate buffer at a concentration of 1.0 mg/mL was prepared and diluted to a concentration of 50 µg/mL. To 1.0 mL of this caffeine solution, the analyte was added as a solid until a saturated solution was obtained. This solution was stirred for five hours at room temperature. The mixture was filtered over a 0.22 µm syringe filter and the obtained solution was analyzed by UHPLC. The concentration was then calculated from the linear equation obtained from the calibration.
With most samples of fidaxomicin derivatives, two peaks for the analyte were detected, viz. one for the original substance and one for its regioisomer formed by transacylation of the isobutyric acid ester. In the following table, the total solubility of each analyte is given with the percentage of isomerization added in parentheses (weight-% of transacylated isomer), assuming that both regioisomers feature approximately the same absorption characteristics. Table 2: Aqueous solubility of fidaxomicin derivatives

[5] = pH = 7 phosphate buffered aqueous solution

In the case of `CCOC(=O)COc1c(Cl)c(O)c(C(=O)O[C@H]2[C@H](O)[C@H](OC)[C@H](OC/C3=C\C=C\C[C@H](O)/C(C)=C/[C@H](CC)[C@@H](O[C@@H]4OC(C)(C)[C@@H](OC(=O)C(C)C)[C@H](O)[C@@H]4O)/C(C)=C/C(C)=C/C[C@@H]([C@@H](C)O)OC3=O)O[C@@H]2C)c(CC)c1Cl` [Compound 5a, Fidaxomicin Ethylacetate], the MIC [1] is reported as 2 µg/mL to 8 µg/mL and 1.8 µM to 7 µM, the MIC [2] is reported as 32 µg/mL and 28 µM and the MIC [3] is reported as 16 µg/mL and 14 µM.

With `CCOC(=O)COc1c(Cl)c(CC)c(C(=O)O[C@H]2[C@H](O)[C@H](OC)[C@H](OC/C3=C\C=C\C[C@H](O)/C(C)=C/[C@H](CC)[C@@H](O[C@@H]4OC(C)(C)[C@@H](OC(=O)C(C)C)[C@H](O)[C@@H]4O)/C(C)=C/C(C)=C/C[C@@H]([C@@H](C)O)OC3=O)O[C@@H]2C)c(OCC(=O)OCC)c1Cl` [Compound 5b, Fidaxomicin Bis(ethylacetate)] the MIC [1] was 1 µg/mL to 4 µg/mL and 0.8 µM to 3.3 µM, the MIC [2] was 8 µg/mL to 16 µg/mL and 6.5 µM to 13 µM and the MIC [3] was 32 µg/mL to 64 µg/mL and 26 µM to 52 µM.

In the case of `C=CCOC(=O)N1CCN(C(=O)COc2c(Cl)c(O)c(C(=O)O[C@H]3[C@H](O)[C@H](OC)[C@H](OC/C4=C\C=C\C[C@H](O)/C(C)=C/[C@H](CC)[C@@H](O[C@@H]5OC(C)(C)[C@@H](OC(=O)C(C)C)[C@H](O)[C@@H]5O)/C(C)=C/C(C)=C/C[C@@H]([C@@H](C)O)OC4=O)O[C@@H]3C)c(CC)c2Cl)CC1` [Compound 7a, Fidaxomicin Piperazine with alloc Protecting Group], the MIC [2] is reported as > 64 µg/mL and > 50.5 µM and the MIC [3] is reported as 16 µg/mL to 32 µg/mL and 12.6 µM to 25.2 µM.

For `CCc1c(Cl)c(OCC(=O)N2CCC(O)CC2)c(Cl)c(O)c1C(=O)O[C@H]1[C@H](O)[C@H](OC)[C@H](OC/C2=C\C=C\C[C@H](O)/C(C)=C/[C@H](CC)[C@@H](O[C@@H]3OC(C)(C)[C@@H](OC(=O)C(C)C)[C@H](O)[C@@H]3O)/C(C)=C/C(C)=C/C[C@@H]([C@@H](C)O)OC2=O)O[C@@H]1C` [Compound 10a], the “weight-% of isomer (transacylated regioisomer)” value [4, 5] was 7 weight-% and the solubility at 5 h ([4]; phosphate buffer, aqueous buffer, pH = 7 phosphate buffered aqueous solution, stirred five hours at room temperature, 0.22 µm filter, read-out: Conc. (aqueous solubility, total of both regioisomers)) was 180 µg/mL (≈ 150 µM).

For `CCc1c(Cl)c(OCC(=O)N2CCN(c3cc4c(cc3F)c(=O)c(C(=O)O)cn4C3CC3)CC2)c(Cl)c(O)c1C(=O)O[C@H]1[C@H](O)[C@H](OC)[C@H](OC/C2=C\C=C\C[C@H](O)/C(C)=C/[C@H](CC)[C@@H](O[C@@H]3OC(C)(C)[C@@H](OC(=O)C(C)C)[C@H](O)[C@@H]3O)/C(C)=C/C(C)=C/C[C@@H]([C@@H](C)O)OC2=O)O[C@@H]1C` [Compound 11a, Fidaxomicin-Ciprofloxacin Hybrid], the MIC [1] was 16 µg/mL to 64 µg/mL and 11.2 µM to 44.8 µM and the MIC [3] was > 64 µg/mL and > 44.8 µM.

For `CCc1c(Cl)c(O)c(Cl)c(O)c1C(=O)O[C@H]1[C@H](O)[C@H](OC)[C@H](OCC2=CC=CC[C@H](O)C(C)=C[C@H](CC)[C@@H](O[C@@H]3OC(C)(C)[C@@H](OC(=O)C(C)C)[C@H](O)[C@@H]3O)C(C)=CC(C)=CC[C@@H]([C@@H](C)O)OC2=O)O[C@@H]1C` [Fidaxomicin, 3-(((6-Deoxy-4-O-(3,5-dichloro-2-ethyl-4,6-dihydroxybenzoyl)-2-O-methyl-β-D-mannopyranosyl)oxy)-methyl)-12(R)-[(6-deoxy-5-C-methyl-4-O-(2-methyl-1-oxopropyl)-β-D-lyxo-hexopyranosyl)oxy]-11(S)-ethyl-8(S)-hydroxy-18(S)-(1(R)-hydroxyethyl)-9,13,15-trimethyloxacyclooctadeca-3,5,9,13,15-pentaene-2-one, reference compound], the MIC [1] was 4 µg/mL and 3.8 µM, the MIC [2] was 8 µg/mL to 16 µg/mL and 7.6 µM to 15.1 µM and the solubility at 5 h ([4]; pH 7, aqueous buffer) was 84 µg/mL (≈ 79.4 µM). For the same molecule, the “weight-% of isomer (transacylated regioisomer)” value [4, 5] was 9 weight-% and the MIC [3] was 8 µg/mL to 16 µg/mL and 7.6 µM to 15.1 µM.
